Source: patent US5534654A, “Aromatic-sulfonamide-type hydroxamic acid derivative” (Shionogi & Co., Ltd., priority 1991, dated 1996)

Tests used:
Type in all cases: cell-based
[1] = tested on: NIH3T3 cells transformed by ras gene; test: Detransformation of Cells Transformed by Ras Gene; conditions: Mus musculus, 24 hours, 2-fold serial dilutions, morphological observation, read-out: MTC: Minimum Concentration Required for the Detransformation of Cells Transformed by Ras Gene
Description: Medium used: 9.5 g of Dulbecco's Eagle MEM medium (Nissui Seiyaku) solution, 20 ml of 7% sodium hydrogen carbonate solution are added to distilled water and a fetal bovine serum (Flow Laboratories, Inc.) was added to a final concentration of 10 v/v % to obtain the medium. The medium (100 μl) was added to a 96-well plate (Sumitomo Bakelite) and NIH3T3 cells transformed by ras gene (5×10^3 cells/well) were seeded. The plate was incubated for 24 hr in a 5% carbon dioxide gas incubator. Then a sample to be tested was added in such a manner as to give 2-fold serial dilutions. After 24 hours, cells were observed morphologically to evaluate the detransformation activity.
Minimum Concentration Required for the Detransformation of Cells Transformed by Ras Gene

[2] = tested on: Cell Adhesion of Leukocytes onto Vascular Endothelial Cells of Human Umbilical Vein; test: Assay of Inhibition Activity Against Cell Adhesion of Leukocytes (HL60 cells) onto Vascular Endothelial Cells of Human Umbilical Vein; conditions: 16-hour incubation with sample, then TNF 4 hr, HL-60 cells 30 min, Rose Bengal OD570
Description: Assay of Inhibition Activity Against Cell Adhesion of Leukocytes onto Vascular Endothelial Cells of Human Umbilical Vein
Human vascular endothelial cells used had been obtained from human umbilical vein by perfusion method using an enzyme solution of collagenase and have been maintained by subculturing in a culture solution, i.e., M199 medium (Gibco, Inc.) supplemented with 20% fetal bovine serum (FBS; Gibco, Inc.), 100 μg/ml endothelial mitogen (Funakoshi), 90 μg/ml heparin, 50 IU/ml Penicillin and 50 μg/ml Streptomycin. HL60 cells (human myelocytic leukemia cells) were purchased from Flow, Inc. and have been maintained by subculturing in RPMI1640 medium containing 10% FBS.
Four hours later, to each well was added 4 μl of a medium containing a sample at various concentrations. […] After 16-hour-incubation, 4 μl of 1×10^4 μ/ml TNF solution (tumor necrosis factor dissolved in a medium solution) was added and the incubation was continued for 4 hr. The resultant medium solution containing the sample was then filtered with suction and washed (×3) with DMEM solution containing 10% FBS, which was followed by the addition of 200 μl suspension of 3×10^5 HL-60 cells suspended in DMEM containing 10% FBS. The incubation was carried out at 37° C. for 30 min. […] After being allowed to stand for 5 min at room temperature, the supernatant was removed by aspiration, which was followed by washing (×2) with DMEM solution containing 10% FBS. A mixture of ethanol/phosphate-buffered physiological saline (1:1) was added and the resultant mixture was allowed to stand for 30 min to solubilize Rose Bengal pigment, which was followed by the determination of OD570 value on spectrophotometer.

[3] = tested on: Vascular Endothelial Cells of Human Umbilical Vein; test: Assay of Inhibition Against the Cell Growth of Vascular Endothelial Cells of Human Umbilical Vein (MTT method); conditions: 72 h, 3-day incubation, OD570
Description: Assay of Inhibition Against the Cell Growth of Vascular Endothelial Cells of Human Umbilical Vein
Human vascular endothelial cells used had been obtained from human umbilical vein by perfusion method using an enzyme solution of collagenase and have been maintained by subculturing in a culture solution, i.e., M199 medium (Gibco, Inc.) supplemented with 20% fetal bovine serum (FBS; Gibco, Inc.), 100 μg/ml endothelial mitogen (Funakoshi), 90 μg/ml heparin, 50 IU/ml Penicillin and 50 μg/ml Streptomycin. […] On the next day, to each well was added 10 μl of a medium containing a sample at various concentrations. […] After 3-day-incubation, to the mixture was added 50 μl of 3 mg/ml MTT solution (a solution of 3-(4,5-dimethyl-2-thiazolyl)-2,5-diphenyl-2H-tetrazolium bromide dissolved in a culture solution) and the incubation was continued for 4 hr. Cells and MTT pigment were solubilized by the addition of 50 μl of 20% SDS solution (sodium dodecylsulfate dissolved in 0.02N HCl) and the incubation continued for 1 hr, which was followed by the determination of OD570 value on spectrophotometer.

SMILES	IC50 [2] [µM]	minimal effective concentration [1] [µM]	IC50 [3] [µM]
O=C(/C=C/C=C/c1ccccc1NS(=O)(=O)c1ccccc1)NO [Compound I-4, (2E)(4E)-5-(2-Phenylsulfonylaminophenyl)pentadienohydroxamic Acid]		1.6	
CN(c1ccccc1/C=C/C=C/C(=O)NO)S(=O)(=O)c1ccccc1 [Compound I-7, (2E)(4E) -5-[2-(N-Methylphenylsulfonylamino)phenyl]-2,4-pentadienohydroxamic Acid]	4.5	0.2	
O=C(/C=C/C=C/C=C/c1ccccc1NS(=O)(=O)c1ccccc1)NO [Compound I-9, (2E)(4E)(6E)-7-(2-Phenylsulfonylaminophenyl)-heptatrienohydroxamic Acid]	6.5	3.2	25.6
O=C(/C=C/C=C/c1ccc(NS(=O)(=O)c2ccccc2)cc1)NO [Compound I-12, (2E)(4E)-5-(4-Phenylsulfonylaminophenyl)pentadienohydroxamic Acid]		3.1	
O=C(/C=C/C#Cc1cccc(NS(=O)(=O)c2ccccc2)c1)NO [Compound I-18, (2E)-5-[3-(Phenylsulfonylamino)phenyl]pent-2-en-4-ynohydroxamic Acid]	2.5	0.039	13.8
O=C(/C=C/C=C/c1cc2ccccc2cc1NS(=O)(=O)c1ccccc1)NO [Compound I-20, (2E)(4E)-5-(3'-Phenylsulfonylamino-2'-naphthyl)pentadienohydroxamic Acid]		0.6	

More lines, main results first:

IC50 [2] [µM]	SMILES	minimal effective concentration [1] [µM]	IC50 [3] [µM]
5.3	O=C(/C=C/C=C/c1cccc(NS(=O)(=O)c2ccccc2)c1)NO [Compound I-10, (2E)(4E)-5-(3-Phenylsulfonylaminophenyl)pentadienohydroxamic Acid]	0.3	20.4
6.4	CN(c1cccc(/C=C/C=C/C(=O)NO)c1)S(=O)(=O)c1ccccc1 [Compound I-11]	0.6	
8.3	O=C(/C=C/C=C/c1cc2ccccc2n1S(=O)(=O)c1ccccc1)NO [Compound I-17, (2E)(4E)-5-(1-phenylsulfonylindol-2-yl)pentadienohydroxamic Acid]	3.2	
6.3	CN(c1cccc(C#C/C=C/C(=O)NO)c1)S(=O)(=O)c1ccccc1 [Compound I-19, (2E)-5-[3-(N-Methylphenylsulfonylamino)phenyl]pent-2-en-4-ynohydroxamic Acid]	0.3	26.7
